Literature values, collected in patent US7884136B2, “Modified-release formulations of a bupropion salt” (Biovail Laboratories International S.R.L., priority 2005, dated 2011).
Like-named read-outs stand apart in the source and are kept apart here.

Conditions: cited from earlier work
[1] = Mono- and Diglyceride Surfactants
[2] = Sugar Ester Surfactants, as reported by the manufacturer
[3] = PEG-Fatty Acid Diester Surfactants
[4] = Transesterification Products of Oils and Alcohols
[5] = Lower Alcohol Fatty Acid Ester Surfactants, as reported by the manufacturer
[6] = PEG-Fatty Acid Monoester Surfactants
[7] = Propylene Glycol Fatty Acid Esters
[8] = Sorbitan Fatty Acid Ester Surfactants, as reported by the manufacturer

Q: Which HLB [1] does the source give for `CCCCCCCC/C=C/CCCCCCCC(=O)OCC(O)CO` (stereo not drawn) [Monoelaidin (C18:1)] here?
A: <10

Q: Which HLB [1] does the source give for `CCCCCCCCCCCC(=O)OCC(O)CO` (stereo not drawn) [Monolaurin] here?
A: <10

Q: Which HLB [1] does the source give for `CCCCCCCCCCCCCC(=O)OCC(O)CO` (stereo not drawn) [Glyceryl monomyristate (C14)] here?
A: 3-4

Q: Which HLB [1] does the source give for `CCCCCC[C@@H](O)C/C=C\CCCCCCCC(=O)OCC(O)CO` (stereo partly drawn) [Glyceryl ricinoleate] here?
A: 6

Q: For `CCCCCC(=O)OCC(O)CO` (stereo not drawn) [Monocaproin (C6)], which HLB [1] is on record?
A: <10

Q: For Sucrose dipalmitate, which HLB [2] is on record?
A: 7.4

Q: With PEG-8 dioleate as the compound, how does the HLB [3] read?
A: 8.8

Q: With `CCCCCCCCCC(=O)OCC(O)CO` (stereo not drawn) [Monocaprin] as the compound, how does the HLB [1] read?
A: <10

Q: For Polyglyceryl-2 stearate, which HLB (Polyglycerized Fatty Acids) is on record?
A: 5-7

Q: For Pentaerythrityl tetraisostearate, which HLB [4] is on record?
A: <10

Q: For `CCCCC/C=C\C/C=C\CCCCCCCC(=O)OC(C)C` [Isopropyl linoleate], which HLB [5] is on record?
A: <10

Q: Which HLB (Polyglycerized Fatty Acids) does the source give for Polyglyceryl-10 oleate here?
A: 14

Q: Which HLB (Polyglycerized Fatty Acids) does the source give for Polyglyceryl-10 decaoleate here?
A: 3.5

Q: For PEG-4 dilaurate, which HLB [3] is on record?
A: 6

Q: With PEG-12 oleate as the compound, how does the HLB [6] read?
A: 14

Q: For PEG-5 stearate, which HLB [6] is on record?
A: 9.5

Q: For `CCCCCCCCCCCCCCCCCC(=O)OCC(C)OC(=O)CCCCCCCCCCCCCCCCC` (stereo not drawn) [Propylene glycol distearate], which HLB [7] is on record?
A: >6

Q: Which HLB [6] does the source give for PEG-50 stearate here?
A: >10

Q: For `CCCCCCCC/C=C\CCCCCCCC(=O)OCC` [Ethyl oleate], which HLB [5] is on record?
A: <10

Q: For Polyglyceryl-10 septaoleate, which HLB (Polyglycerized Fatty Acids) is on record?
A: 3

Q: With Polyglyceryl-3 oleate as the compound, how does the HLB (Polyglycerized Fatty Acids) read?
A: 6.5

Q: For `CCCCC/C=C\C/C=C\CCCCCCCC(=O)OCC` [Ethyl linoleate], which HLB [5] is on record?
A: <10

Q: For PEG-2 oleate, which HLB [6] is on record?
A: 4.5

Q: With Polyglyceryl-2 oleate as the compound, how does the HLB (Polyglycerized Fatty Acids) read?
A: 5-7

Q: With PEG 400 distearate as the compound, how does the HLB [6] read?
A: >10

Q: For Polyglyceryl-10 decaisostearate, which HLB (Polyglycerized Fatty Acids) is on record?
A: <10

Q: With Polyglyceryl-3 distearate as the compound, how does the HLB (Polyglycerized Fatty Acids) read?
A: <10

Q: Which HLB [6] does the source give for PEG-2 stearate here?
A: 4

Q: With `CCCCCCCCCCCCCC(=O)OC(C)C` [Isopropyl myristate] as the compound, how does the HLB [5] read?
A: <10

Q: With `CCCCCCCC/C=C\CCCCCCCC(=O)OCC(O)CO` (stereo not drawn) [Glyceryl monooleate] as the compound, how does the HLB [1] read?
A: 3-4

Q: With PEG-5 oleate as the compound, how does the HLB [6] read?
A: 9.5

Q: With PEG-12 distearate as the compound, how does the HLB [3] read?
A: 10.7

Q: Which HLB [6] does the source give for PEG-400 oleate here?
A: >10

Q: With PEG 400 dioleate as the compound, how does the HLB [6] read?
A: >10

Q: With `CCCCCCCCCCCCCCCCCC(=O)OCC(CO)(CO)COC(=O)CCCCCCCCCCCCCCCCC` [Pentaerythrityl distearate] as the compound, how does the HLB [4] read?
A: <10

Q: Which HLB [6] does the source give for PEG-15 stearate here?
A: 14

Q: For PEG-30 glyceryl oleate, which HLB (PEG Glycerol Fatty Acid Esters) is on record?
A: >10

Q: For PEG-400 dioleate, which HLB [3] is on record?
A: >10

Q: With `CCCCCCCCCCCC(=O)OCC(C)OC(=O)CCCCCCCCCCC` (stereo not drawn) [Propylene glycol dilaurate] as the compound, how does the HLB [7] read?
A: >6

Q: Which HLB [1] does the source give for `CCCCCCCCCCCCCCCC(=O)OCC(O)CO` (stereo not drawn) [Glycerol monopalmitate] here?
A: 4

Q: For Sorbitan monoisostearate, which HLB [8] is on record?
A: 4.7

Q: For PEG-200 oleate, which HLB [6] is on record?
A: >10

Q: With PEG-4 oleate as the compound, how does the HLB [6] read?
A: 8.3

Q: For PEG-30 stearate, which HLB [6] is on record?
A: >10

Q: With PEG-30 cholestanol as the compound, how does the HLB (Sterol and Sterol Derivative Surfactants) read?
A: >10

Q: Which HLB (Polyglycerized Fatty Acids) does the source give for Polyglyceryl-2 dioleate here?
A: 7

Q: For `CCCCCCCCCCCCOS(=O)(=O)[O-].[Na+]` [Sodium lauryl sulfate (dodecyl)], which HLB (Ionic Surfactants, as reported by the manufacturer) is on record?
A: 40

Q: For PEG-12 stearate, which HLB [6] is on record?
A: 14

Q: Which HLB [6] does the source give for PEG-100 stearate here?
A: 19

Q: Which HLB [8] does the source give for Sorbitan trioleate here?
A: 4.3

Q: With Sucrose distearate as the compound, how does the HLB [2] read?
A: 3

Q: With Polyglyceryl-4 pentaoleate as the compound, how does the HLB (Polyglycerized Fatty Acids) read?
A: <10

Q: Which HLB [8] does the source give for Sorbitan sesquistearate here?
A: 4.2

Q: With Polyglyceryl-6 pentaoleate as the compound, how does the HLB (Polyglycerized Fatty Acids) read?
A: <10
